Measurements as given in patent US20250281479A1, “TREATMENT OF CAVERNOUS ANGIOMAS WITH A 4-SUBSTITUTED PIPERIDINE DERIVATIVE” (Neurelis, Inc., priority 2024, published 2025).
Where two headings read alike, the source gives them in different places.

How the values were obtained:
[1] = first-in-human single ascending dose and food-effect study, plasma pharmacokinetics; format: in vivo; conditions: for AUC: read-out: AUC0-Tmax; for AUC(0-inf): read-out: AUCinf; for Cmax: read-out: Cmax; for Vd/F: read-out: Vz/F
Text: (§1) This was a first-in-human, single center, randomized, double-blind, placebo-controlled, single ascending dose (SAD) study, including a food-effect assessment, in healthy male and female subjects. Up to 44 subjects were included in the study.
(§2) The study consisted of 4 sequential cohorts of 8 subjects each (6 active and 2 placebo), randomly assigned to receive a single oral dose of NRL-1049 or matching-placebo under fasting state on Day 1 (See Table 2). In each cohort, a sentinel group of 2 subjects (1 active and 1 placebo) were dosed at least 24 hours prior to enrolling the remaining subjects of the cohort, contingent on the safety profile observed during sentinel dosing, as defined by medical judgment.
(§3) Subjects were admitted to the clinical research unit (CRU) on Day −1. On Day 1, following an overnight fast, subjects received a single oral dose of their assigned study treatment. Safety, PK, and exploratory biomarker assessments were performed prior to dosing and at assigned time points during study confinement. Subjects were permitted to leave the CRU following the completion of the 48-hour PK postdose sampling and safety assessments. A safety follow-up phone call was performed on Day 8 (±1 day).
(§4) Furthermore, a food-effect assessment was integrated into Cohort 3, in which a single oral 150 mg dose of NRL-1049 or placebo was administered to 12 subjects (10 active and 2 placebo) under fed state in Period 2 (refer to schedule of food-effect Cohort 3 in Table 3). After completion of Period 1 and a washout period of at least 14 days, Cohort 3 subjects repeated the screening procedures to ensure they still met the inclusion and exclusion criteria prior to readmission to the CRU for Period 2. Subjects dosed in Period 1 and who returned for Period 2 (a maximum of 6 active and 2 placebo) were administered the same single oral dose in Period 2 under fed state. In addition, at least 4 new subjects were enrolled in Period 2 only, in order to dose a total of 12 subjects (10 active and 2 placebo), in a 1:1 ratio of male to female. If a subject dosed in Period 1 was unable to return for Period 2, a new subject was enrolled to ensure dosing a total of 12 subjects in Period 2. Newly enrolled subjects only received the study drug in the fed state, and as such were not required to undergo Period 1 activities. There was no sentinel approach in Period 2.
Study drugs (NRL-1049 or placebo) were administered in the morning. The date and time of each dose was recorded. For each subject, all scheduled postdose activities and assessments were performed relative to the time of study drug administration. An oral dose of the assigned formulation was administered to subjects with approximately 240 mL of water at ambient temperature. The capsule(s) were swallowed whole and not chewed or broken. Food and fluid intake other than water were controlled for each confinement period and all subjects. In Cohorts 1, 2, 3 (Period 1), and 4, water was permitted as needed except from 1 hour predose until 1 hour after dosing. In Period 2 of Cohort 3, water was permitted as needed throughout the confinement period. For cohorts under fasting state, subjects were required to fast (abstain from food) for at least 10 hours prior to dosing and for at least 4 hours following dosing. In Period 2 of the food-effect cohort only, following an overnight fast of at least 10 hours, subjects received a standardized high-fat, high-calorie meal 30 minutes prior to study drug administration. An example meal would consist of 2 eggs fried in butter, 2 strips of bacon, 2 slices of toast with butter, 4 ounces of hash brown potatoes, and 8 ounces of whole milk. […] Subjects had to eat the total content of this meal in 30 minutes or less. For all cohorts, a standardized lunch was served at least 4 hours after dosing. A supper, light snack, and other meals were served at appropriate times thereafter, but not until after 9 hours postdose. […]

[2] = first-in-human single ascending dose and food-effect study, safety and tolerability; format: in vivo
Text: as §1, §2, §3
Each dose cohort was separated by at least 7 days to review safety by the Data Safety Monitoring Board (DSMB) prior to a decision to proceed with the next higher dose cohort or stop the study.
as §4
The safety, PK, and exploratory biomarker assessments were performed prior to dosing and at assigned time points during study confinement. For the food-effect cohort, exploratory biomarker samples were collected in both periods. Subjects were discharged from the CRU following the completion of the 48-hour PK postdose sampling and safety assessments. A safety follow-up phone call was performed on Day 23 (±1 day).

[3] = both sexes, human, plasma, po, 150 mg, plasma NRL-1049, mean, 150 mg NRL-1049 single oral, Fed, Cohort 3, N = 10
[4] = both sexes, human, plasma, po, 250 mg, plasma NRL-1049, mean, 250 mg NRL-1049 single oral, fasting, Cohort 4, N = 6
[5] = plasma NRL-1049, mean, 25 mg NRL-1049 single oral, fasting, Cohort 1, N = 6
[6] = plasma NRL-1049, mean, 75 mg NRL-1049 single oral, fasting, Cohort 2, N = 6
[7] = plasma NRL-1049, mean, 150 mg NRL-1049 single oral, Fed, Cohort 3, N = 10
[8] = plasma NRL-1049, mean, 250 mg NRL-1049 single oral, fasting, Cohort 4, N = 6

Q: Which AUC [1, 3] does the source give for C[C@@H](N)C1CCN(S(=O)(=O)c2cccc3cnccc23)CC1 [NRL-1049] here?
A: 6.14 ng·h/mL

Q: What about the AUC(0-inf) [1, 3] of the same compound?
A: 44.7 ng·h/mL

Q: And the Cmax [1, 3]?
A: 18.5 ng/mL

Q: And the Vd/F [1, 3]?
A: 10800 L

Q: What about the Tmax ([1]; both sexes, human, plasma, po, 150 mg, plasma NRL-1049, median, 150 mg NRL-1049 single oral, Fasted, Cohort 3, N = 6, read-out: Tmax) of the same compound?
A: 30 min

Q: What about the Tmax ([1]; both sexes, human, plasma, po, 150 mg, plasma NRL-1049, median, 150 mg NRL-1049 single oral, Fed, Cohort 3, N = 10, read-out: Tmax) of the same compound?
A: 52.8 min

Q: What about the AUC(0-t) ([1]; both sexes, human, plasma, po, 250 mg, plasma NRL-1049, mean, 250 mg NRL-1049 single oral, fasting, Cohort 4, N = 6, read-out: AUC0-T) of the same compound?
A: 76.5 ng·h/mL

Q: And the AUC [1, 4]?
A: 8.73 ng·h/mL

Q: And the AUC(0-inf) [1, 4]?
A: 78.2 ng·h/mL

Q: And the Cmax [1, 4]?
A: 58 ng/mL

Q: What about the Vd/F [1, 4] of the same compound?
A: 4940 L

Q: What about the Tmax ([1]; both sexes, human, plasma, po, 250 mg, plasma NRL-1049, median, 250 mg NRL-1049 single oral, fasting, Cohort 4, N = 6, read-out: Tmax) of the same compound?
A: 30 min

Q: What about the Tmax ([1]; both sexes, human, plasma, po, range over single oral doses of 25 to 250 mg NRL-1049, fasting state, read-out: median time to maximum observed plasma concentration (Tmax)) of the same compound?
A: 30 to 45 min

Q: What about the CL/F [1, 5] of the same compound?
A: 7420 L/h

Q: And the Thalf [1, 5]?
A: 0.52 h

Q: And the CL/F [1, 6]?
A: 5350 L/h

Q: And the Thalf [1, 6]?
A: 0.81 h

Q: And the CL/F ([1]; plasma NRL-1049, mean, 150 mg NRL-1049 single oral, Fasted, Cohort 3, N = 6)?
A: 4820 L/h

Q: And the CL/F [1, 7]?
A: 3700 L/h

Q: What about the Thalf [1, 7] of the same compound?
A: 2.05 h

Q: And the CL/F [1, 8]?
A: 3370 L/h

Q: And the Thalf [1, 8]?
A: 1.03 h

Q: And the “deaths or SAEs” value ([2]; Part 1 (SAD))?
A: No deaths or SAEs

Q: And the “deaths or SAEs” value ([2]; Part 2)?
A: No deaths or SAEs

Q: What about the “TEAEs of Grade 1/mild” value ([2]; both, human, in vivo) of the same compound?
A: 57.1%

Q: And the “TEAEs of Grade 1 or Grade 2” value ([2]; both, human, in vivo)?
A: 92.3%

Q: What about the “TEAEs of Grade 2/moderate” value ([2]; both, human, in vivo) of the same compound?
A: 42.9%

Q: What about the “TEAEs deemed related to study treatment” value ([2]; both, human, in vivo, 8 days) of the same compound?
A: 76.9%

Q: What about the “TEAEs of Grade 1” value ([2]; both, human, in vivo, 8 days) of the same compound?
A: 30.8%

Q: What about the “TEAEs of Grade 2” value ([2]; both, human, in vivo, 8 days) of the same compound?
A: 61.5%

Q: And the “subjects who experienced TEAEs” value ([2]; both, human, in vivo, 8 days)?
A: 28.1%

Q: And the “CS abnormal findings in laboratory parameters, vital signs, ECGs, physical examination, or cardiac telemetry” value ([2]; in vivo)?
A: No CS abnormal findings

Q: And the blood pressure ([2]; in vivo)?
A: reduction of blood pressure

Q: What about the tolerability ([2]; in vivo, po) of the same compound?
A: generally well tolerated

Q: What about the “deaths, SAEs, Grade 4/5 TEAEs” value ([2]; overall) of the same compound?
A: no deaths, SAEs, or Grade 4/5 TEAEs

Q: What about the MTD ([2]; single oral dose, levels between 150 and 250 mg not explored) of the same compound?
A: 150 mg
